Results from ChEMBL document CHEMBL1201862, “PubChem BioAssay data set” (2004).
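Test compounds were applied to cells in 96-well plates for 48 hours at 5 doses. The concentration for 50% growth inhibition is given as GI50.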 Active and inactive are the calls of the source. Cut-off read from the data, not from the text of the source: active = GI50 up to about 1.1 µM and inactive = higher.

Experiments:
Assay in all cases: DTP human tumour cell line panel, 48 h
[1] = system: A498
[2] = system: A549
[3] = system: CAKI-1
[4] = system: CCRF-CEM
[5] = system: COLO 205
[6] = system: EKVX
[7] = system: HCC 2998
[8] = system: HOP-62
[9] = system: KM12
[10] = system: MCF7
[11] = system: OVCAR-4
[12] = system: OVCAR-5
[13] = system: PC-3
[14] = system: SK-MEL-2
[15] = system: SNB-75
[16] = system: SR
[17] = system: TK-10
[18] = system: UACC-257
[19] = system: UACC-62
[20] = system: HL-60

Measured: GI50

Cc1c(O)c(OC2OC(CO)C(O)C(O)C2O)cc2c1CC[C@@H]1C2(C)C(=O)C[C@]2(C)[C@@H]([C@@](C)(O)C3CCC(C)(C)O3)[C@H](O)C[C@@]12C (stereo partly specified)
inactive: [1] > 100 µM | [2] > 100 µM | [3] > 100 µM | [4] > 100 µM | [5] > 100 µM | [6] > 100 µM | [7] > 100 µM | [8] > 100 µM | [9] > 100 µM | [10] > 100 µM | [11] > 100 µM | [12] > 100 µM | [13] > 100 µM | [14] > 100 µM | [15] > 100 µM | [16] > 100 µM | [17] > 100 µM | [18] > 100 µM | [19] > 100 µM

Cc1ccc(-c2cc(-c3c(C)nn(C)c(=O)c3N)n[nH]2)cc1
inactive: [1] 28.5 µM | [2] > 100 µM | [3] > 100 µM | [4] > 100 µM | [5] > 100 µM | [6] 83 µM | [7] > 100 µM | [20] > 100 µM | [9] > 100 µM | [10] > 100 µM | [11] > 100 µM | [12] > 100 µM | [13] > 100 µM | [14] > 100 µM | [16] > 100 µM | [17] > 100 µM | [18] > 100 µM | [19] > 100 µM

COc1ccc2c(CC(=O)O)cc(=O)oc2c1
inactive: [1] > 100 µM | [2] > 100 µM | [3] > 100 µM | [4] > 100 µM | [5] > 100 µM | [6] > 100 µM | [7] > 100 µM | [20] > 100 µM | [8] > 100 µM | [9] > 100 µM | [10] > 100 µM | [11] > 100 µM | [12] > 100 µM | [13] > 100 µM | [16] > 100 µM | [17] > 100 µM | [18] > 100 µM | [19] > 100 µM

Cc1ccc(/C=C2\Cc3cc(C)c(C)cc3C2=O)c(C(=O)O)c1
inactive: [1] 22.8 µM | [2] 30.8 µM | [3] 45.8 µM | [4] 27 µM | [6] 87.7 µM | [7] 26.1 µM | [20] 54.3 µM | [8] 33.7 µM | [9] 35.8 µM | [10] 24.7 µM | [13] 22.3 µM | [14] 45.6 µM | [15] 30.3 µM | [16] 52.2 µM | [17] > 100 µM | [18] 24.5 µM | [19] 61.7 µM

C=CCc1cccc2cc(C(=O)Nc3ccccn3)c(=N)oc12
inactive: [1] > 100 µM | [2] > 100 µM | [3] > 100 µM | [4] > 100 µM | [5] > 100 µM | [7] > 100 µM | [20] > 100 µM | [8] > 100 µM | [9] > 100 µM | [10] > 100 µM | [11] > 100 µM | [12] > 100 µM | [13] > 100 µM | [14] > 100 µM | [15] > 100 µM | [16] > 100 µM | [18] > 100 µM | [19] > 100 µM

COC(=O)C1=C(O)C(C(=O)OC)[C@]2(O)[C@H](C(=O)OC)[C@H]1C[C@@H](c1ccc(Cl)cc1Cl)[C@H]2C(=O)OC (stereo partly specified)
inactive: [1] 11.4 µM | [2] 4.36 µM | [3] 9.68 µM | [5] 8.77 µM | [6] 19.1 µM | [7] 10.1 µM | [20] 2.65 µM | [8] 5.5 µM | [9] 12.3 µM | [10] 4.79 µM | [11] 6.55 µM | [12] 17 µM | [13] 8.41 µM | [14] 4.7 µM | [15] 8.61 µM | [16] 4.06 µM | [17] 12.6 µM | [18] 10 µM | [19] 9.46 µM

COc1cc(C2c3cc(O)c(OC)cc3C3OCC2C3CO)ccc1O (stereo unspecified)
inactive: [1] > 100 µM | [2] > 100 µM | [3] > 100 µM | [5] > 100 µM | [6] > 100 µM | [7] > 100 µM | [20] > 100 µM | [8] > 100 µM | [9] > 100 µM | [10] > 100 µM | [11] > 100 µM | [12] > 100 µM | [13] > 100 µM | [14] > 100 µM | [15] > 100 µM | [16] > 100 µM | [17] > 100 µM | [19] > 100 µM

COC(=O)/C=C\[C@H]1[C@H](C)N1S(=O)(=O)c1ccc(C)cc1 (stereo partly specified)
inactive: [1] > 100 µM | [2] > 100 µM | [3] > 100 µM | [4] 91 µM | [5] > 100 µM | [6] > 100 µM | [7] > 100 µM | [20] > 100 µM | [8] > 100 µM | [9] > 100 µM | [10] > 100 µM | [11] > 100 µM | [12] > 100 µM | [13] > 100 µM | [14] > 100 µM | [16] > 100 µM | [17] > 100 µM | [18] > 100 µM | [19] > 100 µM
